Experimental findings from PubChem BioAssay AID328 (DTP/NCI, 2004) are described below.

SMILES strings stand for the structures. Several values for one entry are separate records, joined by “and”; a condition that tells them apart may be missing. Equal values may be shown once. Toxic doses and inconclusive results are not listed.

The experiment has as its system BDF1 mice, P388 leukemia ip, median survival T/C. In words: NCI In Vivo Anticancer Drug Screen. Data for tumor model P388 Leukemia (intraperitoneal) in B6D2F1 (BDF1) mice. The conditions noted are these: endpoint: median survival time, higher = longer survival. The method, then:
The antitumor activity of compounds was measured in mice bearing transplantable tumors. Survival or tumor size were measured and the results are expressed as the measurement made in the treated group (T) divided by the measurement made in the vehicle treated control group (C). The tumor model used in this assay is P388 Leukemia (intraperitoneal) in B6D2F1 (BDF1) mice

[1] abbreviates: dose: 100.0 mg/kg/injection, schedule: Q04DX003 (ip), vehicle: saline with Tween-80.
Where [2] appears, read: dose: 200.0 mg/kg/injection, schedule: Q04DX003 (ip), vehicle: saline with Tween-80.
[3] abbreviates: dose: 400.0 mg/kg/injection, schedule: Q04DX003 (ip), vehicle: saline with Tween-80.
The mark [4] stands for this setting: dose: 50.0 mg/kg/injection, schedule: Q01DX009 (ip), vehicle: saline with Tween-80.
[5] abbreviates: dose: 200.0 mg/kg/injection, schedule: Q01DX009 (ip), vehicle: saline.
[6] abbreviates: dose: 400.0 mg/kg/injection, schedule: Q04DX003 (ip), vehicle: saline.
[7] abbreviates: dose: 25.0 mg/kg/injection, schedule: Q01DX009 (ip), vehicle: saline with Tween-80.
[8] abbreviates: dose: 100.0 mg/kg/injection, schedule: Q01DX009 (ip), vehicle: saline with Tween-80.
Where [9] appears, read: dose: 200.0 mg/kg/injection, schedule: Q01DX009 (ip), vehicle: saline with Tween-80.

For `CCN(CC)CC(C)Nc1ccc([N+](=O)[O-])c2sc3ccccc3c(=O)c12` (stereo not drawn), the T/C reads like this: under setting [1], 200 % of control; (dose: 132.0 mg/kg/injection, schedule: Q04DX003 (ip), vehicle: saline with Tween-80) 209 % of control and 222 % of control; under setting [2], 272 % of control and 300 % of control and 195 % of control; (dose: 300.0 mg/kg/injection, schedule: Q04DX003 (ip), vehicle: saline with Tween-80) 109 % of control and 118 % of control; under setting [3], 115 % of control.

Take `CN(C)N=Nc1ccccc1C(N)=O`: the T/C was 111 % of control (dose: 22.0 mg/kg/injection, schedule: Q01DX009 (ip), vehicle: saline with Tween-80); 104 % of control (dose: 26.6 mg/kg/injection, schedule: Q01DX009 (ip), vehicle: saline with Tween-80); 100 % of control (dose: 33.0 mg/kg/injection, schedule: Q01DX009 (ip), vehicle: saline with Tween-80); 91 % of control (dose: 40.0 mg/kg/injection, schedule: Q01DX009 (ip), vehicle: saline with Tween-80); 111 % of control under setting [4]; 120 % of control (dose: 60.0 mg/kg/injection, schedule: Q01DX009 (ip), vehicle: saline with Tween-80). For the same compound, the T/C (dose: 75.0 mg/kg/injection, schedule: Q01DX009 (ip), vehicle: saline with Tween-80) was 161 % of control.

`CC([NH-])C(=O)O.O=C(O)CN(CC(=O)O)CC(=O)O.[Co+2]`: the T/C is 110 % of control and 113 % of control (dose: 50.0 mg/kg/injection, schedule: Q01DX009 (ip), vehicle: saline); 114 % of control (dose: 66.0 mg/kg/injection, schedule: Q01DX009 (ip), vehicle: saline); 87 % of control (dose: 100.0 mg/kg/injection, schedule: Q04DX003 (ip), vehicle: saline); 104 % of control (dose: 150.0 mg/kg/injection, schedule: Q01DX009 (ip), vehicle: saline); 104 % of control under setting [5]; 104 % of control (dose: 200.0 mg/kg/injection, schedule: Q04DX003 (ip), vehicle: saline). Also, the T/C under setting [6] was 91 % of control.

For the compound `CC(Br)C(=O)NC(C)C(=O)O` (stereo not drawn), the T/C under setting [1] was 100 % of control, the T/C under setting [2] was 109 % of control and the T/C under setting [3] was 118 % of control.

`Cc1c(C#N)c2n(c1C)CCCC(=O)N2`: the T/C was 95 % of control under setting [7]; 109 % of control under setting [4]; 91 % of control (dose: 50.0 mg/kg/injection, schedule: Q04DX003 (ip), vehicle: saline with Tween-80); 104 % of control under setting [8]; 91 % of control under setting [1]; 100 % of control under setting [9]. In addition, the T/C was 87 % of control under setting [2] and 91 % of control under setting [3].

As for `CCCC(O)C1CCCCC1O` (stereo not drawn), the T/C was 100 % of control under setting [1], 100 % of control under setting [2] and 100 % of control under setting [3].

For `COc1ccc(C=C2c3ccccc3-c3ccccc32)cc1`, the T/C was 100 % of control (dose: 100.0 mg/kg/injection, schedule: Q01DX001 (ip), vehicle: saline with Tween-80); 95 % of control (dose: 200.0 mg/kg/injection, schedule: Q01DX001 (ip), vehicle: saline with Tween-80); 100 % of control (dose: 400.0 mg/kg/injection, schedule: Q01DX001 (ip), vehicle: saline with Tween-80).

On to `CS(=O)(=O)OCC(=O)NCCNC(=O)COS(C)(=O)=O`, for which the T/C was 152 % of control under setting [2]; 160 % of control (dose: 264.0 mg/kg/injection, schedule: Q04DX003 (ip), vehicle: saline with Tween-80); 165 % of control (dose: 264.0 mg/kg/injection, schedule: Q04DX003 (ip), vehicle: saline); 169 % of control and 180 % of control under setting [3]; 152 % of control under setting [6]; 182 % of control (dose: 600.0 mg/kg/injection, schedule: Q04DX003 (ip), vehicle: saline).

As for `CC(C)(O)c1ccccc1S(=O)(=O)c1ccccc1C(C)(C)O`, the T/C is 94 % of control (dose: 100.0 mg/kg/injection, schedule: Q04DX002 (ip), vehicle: saline with Tween-80); 93 % of control (dose: 200.0 mg/kg/injection, schedule: Q04DX002 (ip), vehicle: saline with Tween-80); 89 % of control (dose: 400.0 mg/kg/injection, schedule: Q04DX002 (ip), vehicle: saline with Tween-80).

With `O=C(Cn1ccc(=O)[nH]c1=O)c1ccc([N+](=O)[O-])o1`, the T/C runs as follows: (dose: 25.0 mg/kg/injection, schedule: Q04DX003 (ip), vehicle: saline) 109 % of control; (dose: 50.0 mg/kg/injection, schedule: Q04DX003 (ip), vehicle: saline) 100 % of control.

With `CNC(=O)c1ccccc1C(O)(c1ccccc1)c1ccccc1`, the T/C (dose: 100.0 mg/kg/injection, schedule: Q04DX003 (ip), vehicle: Klucel (hydroxypropylcellulose) (HPC)) is 113 % of control; the T/C (dose: 200.0 mg/kg/injection, schedule: Q04DX003 (ip), vehicle: Klucel (hydroxypropylcellulose) (HPC)) is 109 % of control; the T/C (dose: 400.0 mg/kg/injection, schedule: Q04DX003 (ip), vehicle: Klucel (hydroxypropylcellulose) (HPC)) is 100 % of control.

With `C/C=C(\C)C(=O)O[C@@H]1c2cc3c(cc2-c2c(cc(OC)c(OC)c2OC)[C@@H]2C(=O)OC[C@@H]12)OCO3`, the T/C runs as follows: (dose: 1.0 mg/kg/injection, schedule: Q01DX009 (ip), vehicle: saline + alcohol) 100 % of control; (dose: 1.3 mg/kg/injection, schedule: Q01DX009 (ip), vehicle: saline) 90 % of control; (dose: 2.0 mg/kg/injection, schedule: Q01DX009 (ip), vehicle: saline + alcohol) 100 % of control; (dose: 2.0 mg/kg/injection, schedule: Q01DX009 (ip), vehicle: saline) 100 % of control; (dose: 3.0 mg/kg/injection, schedule: Q01DX009 (ip), vehicle: saline) 100 % of control; (dose: 4.0 mg/kg/injection, schedule: Q01DX009 (ip), vehicle: saline + alcohol) 109 % of control. The T/C reads like this: (dose: 5.3 mg/kg/injection, schedule: Q01DX009 (ip), vehicle: saline with Tween-80) 110 % of control; (dose: 7.11 mg/kg/injection, schedule: Q01DX009 (ip), vehicle: saline + alcohol) 158 % of control; (dose: 8.0 mg/kg/injection, schedule: Q01DX009 (ip), vehicle: saline + alcohol) 118 % of control; (dose: 8.0 mg/kg/injection, schedule: Q01DX009 (ip), vehicle: saline with Tween-80) 110 % of control; (dose: 10.66 mg/kg/injection, schedule: Q01DX009 (ip), vehicle: saline + alcohol) 95 % of control; (dose: 12.0 mg/kg/injection, schedule: Q01DX009 (ip), vehicle: saline with Tween-80) 110 % of control. The T/C is, setting by setting: (dose: 16.0 mg/kg/injection, schedule: Q01DX009 (ip), vehicle: saline + alcohol) 91 % of control; (dose: 21.4 mg/kg/injection, schedule: Q01DX009 (ip), vehicle: saline) 110 % of control; (dose: 24.0 mg/kg/injection, schedule: Q01DX009 (ip), vehicle: saline + alcohol) 100 % of control; (dose: 32.0 mg/kg/injection, schedule: Q01DX009 (ip), vehicle: saline) 115 % of control; (dose: 48.0 mg/kg/injection, schedule: Q01DX009 (ip), vehicle: saline) 100 % of control and 120 % of control; (dose: 72.0 mg/kg/injection, schedule: Q01DX009 (ip), vehicle: saline) 113 % of control. Besides, the T/C (dose: 88.0 mg/kg/injection, schedule: Q01DX009 (ip), vehicle: saline) was 95 % of control; the T/C (dose: 108.0 mg/kg/injection, schedule: Q01DX009 (ip), vehicle: saline) was 95 % of control; the T/C (dose: 133.0 mg/kg/injection, schedule: Q01DX009 (ip), vehicle: saline) was 100 % of control; the T/C under setting [5] was 90 % of control.

For `O=C(NC(=O)c1c(F)cccc1F)Nc1ncc(Br)cc1Br`, the T/C reads like this: under setting [7], 90 % of control; under setting [4], 97 % of control; under setting [8], 96 % of control.

As for `O=C(c1ccccc1)C(SSC(C(=O)c1ccccc1)C(=O)c1ccccc1)C(=O)c1ccccc1`, the T/C under setting [4] is 100 % of control, the T/C under setting [8] was 112 % of control and the T/C under setting [9] was 103 % of control.
